Source: patent US6399570B1, “Antimicrobial/endotoxin neutralizing polypeptide” (priority 1999, dated 2002)

Assays:
E. coli 0111 [1] = test: Galactosamine-sensitized, leukopenic mouse model of bacteremic lethality; assay type: in vivo, CF-1 mice; details: 100 μM, i.p., simultaneous with lethal E. coli dose; 10% in untreated animals
Description: The ultimate protective potential of the LF 6 kDa polypeptide in a host-defense against bacterial infection was determined by testing in an acute, galactosamine-sensitized, leukopenic mouse model system (Bucklin et al., J. Infect. Dis. 174: 1249-1254 (1996)). In this model, mice were made leukopenic to suppress their endogenous host defense systems and then sensitized to the effects of Gram-negative endotoxins by galactosamine treatment while injecting a lethal intraperitoneal dose of E. coli. […] This rescue from lethality dramatically illustrates the protective potential of the polypeptide in vivo and is likely due to its combined antimicrobial and anti-endotoxin properties.
Generation of galactosamine-sensitized, leukopenic mouse model system. CF-1 mice were rendered immunocompromised by cyclophosphamide treatment three days prior to galactosamine-sensitizing them to the lethal effects of injection with an LD90 dose of E. coli 0111 (Bucklin et al., J. Infect. Dis. 174: 1249-1254 (1996)). Under these conditions, circulating leukocytes were reduced by 85% and the LD90 was determined to be 5×10^3 CFU E. coli.

E. coli 0111 [2] = test: Antimicrobial assay for LF polypeptides (CFU after 6 h); assay type: cell-based
Description: The antimicrobial activity of the catheptic polypeptide was measured against a clinical isolate, E. coli 0111. […] The 6 kDa catheptic fragment of LF is therefore at least as potent as twelve other natural antimicrobial polypeptides (H. G. Boman, J. Marsh, and J. A. Goode, Eds., Antimicrobial Peptides, (John Wiley & Sons Ltd., New York, N.Y., 1994)), and can function as a bactericidal agent. […] At 100 μM polypeptide, the number of viable bacteria was more than 1,000-fold greater in the cultures treated with the pepsinolytic versus cathepsinolytic fragment (FIG. 1). The basis for this difference in potency may be related to the additional, internal, pepsin cleavages which occur between the two disulfide bridges in the 6 kDa domain (Mann et al., J. Biol. Chem. 269: 23661-7 (1994); Bellamy et al., Biochim. Biophys. Acta 1121: 130-6 (1992)).
Antimicrobial assay for LF polypeptides. Cultures of E. coli 0111 (American Type Culture Collection #43887) were grown at 37° C. in 1% bactopeptone (BP) (Difco) in Dulbecco's phosphate buffered saline (dPBS) (Mediatech) with aeration by shaking (225 rpm). overnight cultures were diluted 8,000-fold in 2×concentrated BP/dPBS and mixed with an equal volume of sterile endotoxin-free distilled water containing serial dilutions of the polypeptide to be tested. The final assay volume was […] in a 12 mm×75 mm polypropylene tube (Falcon) with an ultimate dilution of the overnight cultures of 1:16,000 to yield an original inoculum of ˜1-2×10^4 CFU/ml. The final assay medium was physiological in ionic strength, 1% bactopeptone in 1×Dulbecco's phosphate buffered saline. Cultures were grown for 6 h at 37° C. with aeration as above and then cell density determined by measuring CFU/ml for each assay culture tube. Serial dilutions of each assay tube were plated on Luria Broth bactoagar and incubated for 24 h at 37° C. prior to counting colonies. All assays were done in triplicate and the standard deviation calculated for each concentration of inhibitor. Culture density at the beginning and end of the 6 h growth period was also determined from triplicate cultures lacking any polypeptide inhibitors. Untreated cultures typically grew to 1-2×10^8 CFU/ml in 6 h under these assay conditions.

E. coli LPS = test: Limulus ELISA, ENC50 against E. coli LPS; assay type: biochemical, Escherichia coli O113:H10
Description: (§1) The peptide-mediated inhibition of endotoxin-induced Limulus amebocyte lysate (LAL) coagulation was measured with a sensitive LAL assay (Zhang et al., J. Clin. Microbiol. 32: 416-422 (1994)). Limulus ELISA is an endotoxin assay based on activation of the LAL coagulation by endotoxin and detection of the generated peptide-C immunoreactivity with an ELISA using a monoclonal antibody to the polypeptide. Endotoxin was defined to be neutralized when it lost its ability to activate the LAL enzymes. The 50% endotoxin-neutralizing concentration (ENC50) reflects the potency of an anti-endotoxin agent; a low ENC50 indicates high potency. Table 2 lists the determined ENC50 value of each anti-endotoxin agent against lipid A and four different types of LPS. The potency of each anti-endotoxin agent varied depending on the type of endotoxin. […] The only difference between the sequence of LF-33 and LF-27 is that LF-27 lacks the first six residues (GRRRRS) at the N-terminus of LF-33. Remarkably, this deletion led to dramatic loss of the endotoxin-neutralizing capacity of the polypeptide in this assay. Binding of serum proteins to endotoxin neutralizes the endotoxin activity in this assay by preventing endotoxin from activating LAL (Emancipator et al., Infect. Immun. 60: 596-601 (1992)).
(§2) LPS. […] LPS (purity >99%) from Neisseria meningitidis was prepared from the group B strain #6275 and its potency was 25 EU/ng. […] The potency of the above endotoxin was determined with the Limulus enzyme-linked immunosorbent assay (ELISA, 43) in comparison with US Pharmacopeia reference standard endotoxin EC-5.
(§3) Briefly, 25 μl endotoxin solution (200 EU/ml) was mixed with an equal volume of test materials in a series of two-fold dilution in 0.15 M NaCl in a sterile 96-well tissue culture plate (Nunc A/S, Roskilde, Denmark), and incubated at 37° C. for 1 h in a dry-air incubator. […] The endotoxin activity was then quantified with the use of Limulus ELISA (Zhang et al., J. Clin. Microbiol. 32: 416-422 (1994)). […] The high sensitivity of the assay allowed for very low levels of the endotoxin activity to be detected. […]

P. aer. LPS = test: Limulus ELISA, ENC50 against P. aer. LPS; assay type: biochemical, Pseudomonas aeruginosa; details: endotoxin 200 EU/ml; mean +/− SD
Description: as §1, §2, §3

S. abortus LPS = test: Limulus ELISA, ENC50 against S. abortus LPS; assay type: biochemical, Salmonella abortus equi; details: endotoxin 200 EU/ml; mean +/− SD
Description: as §1, §2, §3

Row | Molecule | survival rate of infected animals (E. coli 0111 [1]) | reduction in cell growth (E. coli 0111 [2]; 100 μM polypeptide) | number of viable CFUs (E. coli 0111 [2]; 100 μM polypeptide, original inoculum 2.14×10^4 CFU/ml) | minimum inhibitory concentration (MIC) (E. coli 0111 [2]; E. coli 0111, physiological ionic strength, 6 h, CFU) | potency against bacteria relative to the fragment liberated by pepsin (E. coli 0111 [2]; from MICs) | fold less potent than LF-33 at neutralizing E. coli LPS (E. coli LPS) | IC50 (E. coli LPS; endotoxin 200 EU/ml, mean +/− SD) | ENC50 against P. aer. LPS (P. aer. LPS) | IC50 (P. aer. LPS) | ENC50 against S. abortus LPS (S. abortus LPS) | IC50 (S. abortus LPS)
1 | 6 kDa polypeptide: 6 kDa fragment produced by cathepsin D digestion of human LF, amino acids 1-49 of SEQ ID NO: 2 (GRRRRSVQWCAVSQPEATKCFQWQRNMRKVRGPPVSCIKRDSPIQCIQA; listed as Homo sapiens) | 70% | greater than 10,000 fold | 8.8×10^3 CFU/ml | 1 to 5 µM | ~10 fold |  |  |  |  |  | 
2 | CSCC[C@H](NC(=O)[C@H](CC(N)=O)NC(=O)[C@H](CCCNC(=N)N)NC(=O)[C@H](CCC(N)=O)NC(=O)[C@H](Cc1c[nH]c2ccccc12)NC(=O)[C@H](CCC(N)=O)NC(=O)[C@H](Cc1ccccc1)NC(=O)[C@H](CS)NC(=O)[C@H](CCCCN)NC(=O)[C@@H](NC(=O)[C@H](C)NC(=O)[C@H](CCC(=O)O)NC(=O)[C@@H]1CCCN1C(=O)[C@H](CCC(N)=O)NC(=O)[C@H](CO)NC(=O)[C@@H](NC(=O)[C@H](C)NC(=O)[C@H](CS)NC(=O)[C@H](Cc1c[nH]c2ccccc12)NC(=O)[C@H](CCC(N)=O)NC(=O)[C@@H](N)C(C)C)C(C)C)[C@@H](C)O)C(=O)N[C@@H](CCCNC(=N)N)C(=O)N[C@@H](CCCCN)C(=O)N[C@H](C(=O)N[C@@H](CCCNC(=N)N)C(=O)NCC(=O)N1CCC[C@H]1C(=O)O)C(C)C [LF-27] |  |  |  |  |  | approximately 10 fold | 7.45 µM | no detectable activity | > 300 µM | no detectable activity | > 300 µM
